Test results reported in patent US9440941B2, “Substituted chroman-6-yloxy-cycloalkanes and their use as pharmaceuticals” (SANOFI, priority 2013, dated 2016).

target: T1, human NCX1 (Homo sapiens, UniProt P32418); experiment: Inhibition of Ca2+ influx into cells (NCX1 reverse mode), FLIPR Fluo-4 assay; type: cell-based; conditions: inhibition of NCX1 in reverse mode (Ca2+ influx into cells); read-out: NCX1rv IC50
T1 construct: expressed in transfected cells
Procedure, shortened: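 CHO cells stably expressing human NCX1, loaded with Fluo-4 AM, preincubated with compound 45 min at 16 °C in pH 7.4 buffer (3.5 mM CaCl2). Reverse mode triggered by 20 µM gramicidin (final); Fluo-4 fluorescence read at 520 nm every 2 s. IC50 from percentage inhibition of max-minus-min fluorescence.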

SMILES | IC50
Cc1ccccc1C1CCc2cc(O[C@H]3CC[C@H](N)CC3)ccc2O1.Cl (stereo partly drawn) [Example 156, trans-4-(2-o-Tolyl-chroman-6-yloxy)-cyclohexylamine] | 0.6 µM
Cc1ccccc1C1CCc2cc(OC3CCC(C(=O)NCc4ccno4)CC3)ccc2O1 (stereo not shown) [Example 158, N-(Isoxazol-5-ylmethyl)-4-(2-o-tolyl-chroman-6-yloxy)-cyclohexanecarboxamide] | 0.4 µM
NCC(=O)N[C@H]1CC[C@H](Oc2ccc3c(c2)CC[C@@H](c2ccccc2)O3)CC1 [Example 159, 2-Amino-N-[trans-4-((S)-2-phenyl-chroman-6-yloxy)-cyclohexyl]-acetamide] | 0.2 µM
Cc1ccccc1C1CCc2cc(OC3CCC(NCc4c(C)nn(C)c4C)CC3)ccc2O1 (stereo not shown) [Example 177, 4-(2-o-Tolyl-chroman-6-yloxy)-N-(1,3,5-trimethylpyrazol-4-ylmethyl)-cyclohexylamine] | 3.2 µM
O=C(N[C@H]1CC[C@H](Oc2ccc3c(c2)CCC(c2ccccc2)O3)CC1)[C@@H]1CCCN1 (stereo partly drawn) [Example 180, (S)—N-[trans-4-(2-Phenyl-chroman-6-yloxy)-cyclohexyl]-pyrrolidine-2-carboxamide] | 0.8 µM
Cc1ccccc1[C@@H]1CCc2cc(O[C@H]3CC[C@H](C(=O)NCCO)CC3)ccc2O1 [Example 268, trans-4-((S)-2-o-tolyl-chroman-6-yloxy)-cyclohexanecarboxylic acid (2-hydroxy-ethyl)-amide] | 0.15 µM
Cc1ccccc1[C@@H]1CCc2cc(O[C@H]3CC[C@H](C(=O)NCCOP(=O)([O-])[O-])CC3)ccc2O1.[Na+].[Na+] [Example 303, Phosphoric acid mono-(2-{[trans-4-((S)-2-o-tolyl-chroman-6-yloxy)-cyclohexanecarbonyl]-amino}-ethyl) ester disodium salt] | 0.1 µM
